Measurements taken from ChEMBL document CHEMBL1201862, “PubChem BioAssay data set” (2004).
Activity calls are given as the source filed them. Rule as the data show it, for most assays here: actives have a measured EC50 and inactives only a lower limit.

Tests used:
[1] = test system: INS1; test: beta cell apoptosis inhibitors, cytokine rescue, dose response, luminescence, retest (AID 449756); format: functional, cell-based; conditions: Rattus norvegicus;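 also: cell death triggered by IL-1 beta plus TNF-alpha plus IFN-gamma mixture; protective hits raise ATP signal compared with cytokine alone wells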
[2] = Luminescence Cell-Based Dose Response HTS to Identify Inhibitors of 5'UTR Stem-Loop Driven Prion Protein mRNA Translation in H4 Neuroglioblastoma Cells. [Related pubchem assays: 1827 (Project Summary), 1813 (Primary HTS)]; format: functional
[3] = inhibitors of firefly luciferase expression or activity, dose response, H4 neuroglioma cells, luminescence (AID 1990); format: functional, cell-based
[4] = inhibitors of SNCA 5'UTR-driven reporter translation, confirmation, H4 neuroglioma cells, luminescence (AID 1988); format: functional, cell-based
[5] = growth suppression of PTEN-null colon cells, dose response, cell-based, HCT116 PTEN knockout (AID 1047); format: functional;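 also: HCT116 colon tumor cells with PTEN knocked out; cells exposed to compound for 60 hours before readout; potency for loss of cell viability measured by luminescence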
[6] = growth suppression of beta-catenin-knockout colon cells, dose response, cell-based, HCT116, human colon tumor (AID 1045); format: functional;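 also: HCT116 colon tumor cells with beta catenin knocked out; cells exposed to compound for 60 hours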
[7] = target: T1, Rac GTPase-activating protein 1 (Homo sapiens, UniProt Q9H0H5); test: MgcRacGAP GTPase-activating activity inhibitors, confirmation, biochemical, ADP Hunter fluorescence, primary and confirmatory (AID 624330); format: functional
T1 sequence (Q9H0H5 whole entry): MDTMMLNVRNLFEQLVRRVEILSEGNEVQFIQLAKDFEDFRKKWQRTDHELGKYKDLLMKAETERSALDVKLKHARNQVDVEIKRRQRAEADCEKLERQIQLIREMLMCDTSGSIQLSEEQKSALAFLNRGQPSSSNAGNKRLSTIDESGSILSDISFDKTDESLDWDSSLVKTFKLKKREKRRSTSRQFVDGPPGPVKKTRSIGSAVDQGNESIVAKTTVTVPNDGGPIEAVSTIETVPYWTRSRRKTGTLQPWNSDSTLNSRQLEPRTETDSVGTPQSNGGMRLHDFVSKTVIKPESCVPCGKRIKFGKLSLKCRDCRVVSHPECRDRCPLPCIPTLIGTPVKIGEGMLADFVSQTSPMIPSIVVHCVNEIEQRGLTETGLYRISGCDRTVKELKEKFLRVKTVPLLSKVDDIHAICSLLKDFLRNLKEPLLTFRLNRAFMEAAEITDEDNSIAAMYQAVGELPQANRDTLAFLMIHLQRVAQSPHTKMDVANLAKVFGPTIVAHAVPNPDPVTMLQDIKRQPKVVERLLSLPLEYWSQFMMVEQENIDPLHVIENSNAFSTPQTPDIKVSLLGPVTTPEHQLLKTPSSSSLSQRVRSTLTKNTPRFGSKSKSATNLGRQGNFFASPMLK

[8] = target: T2, Protein RecA (Mycobacterium tuberculosis, UniProt P9WHJ3); test: Fluorescence Cell-Free Homogeneous Dose Retest to Identify Inhibitors of RecA-Intein Splicing Activity. [Related pubchem assays (depositor defined):AID2097, AID2223, AID489010, AID492950]; format: functional
T2 sequence (P9WHJ3 whole entry): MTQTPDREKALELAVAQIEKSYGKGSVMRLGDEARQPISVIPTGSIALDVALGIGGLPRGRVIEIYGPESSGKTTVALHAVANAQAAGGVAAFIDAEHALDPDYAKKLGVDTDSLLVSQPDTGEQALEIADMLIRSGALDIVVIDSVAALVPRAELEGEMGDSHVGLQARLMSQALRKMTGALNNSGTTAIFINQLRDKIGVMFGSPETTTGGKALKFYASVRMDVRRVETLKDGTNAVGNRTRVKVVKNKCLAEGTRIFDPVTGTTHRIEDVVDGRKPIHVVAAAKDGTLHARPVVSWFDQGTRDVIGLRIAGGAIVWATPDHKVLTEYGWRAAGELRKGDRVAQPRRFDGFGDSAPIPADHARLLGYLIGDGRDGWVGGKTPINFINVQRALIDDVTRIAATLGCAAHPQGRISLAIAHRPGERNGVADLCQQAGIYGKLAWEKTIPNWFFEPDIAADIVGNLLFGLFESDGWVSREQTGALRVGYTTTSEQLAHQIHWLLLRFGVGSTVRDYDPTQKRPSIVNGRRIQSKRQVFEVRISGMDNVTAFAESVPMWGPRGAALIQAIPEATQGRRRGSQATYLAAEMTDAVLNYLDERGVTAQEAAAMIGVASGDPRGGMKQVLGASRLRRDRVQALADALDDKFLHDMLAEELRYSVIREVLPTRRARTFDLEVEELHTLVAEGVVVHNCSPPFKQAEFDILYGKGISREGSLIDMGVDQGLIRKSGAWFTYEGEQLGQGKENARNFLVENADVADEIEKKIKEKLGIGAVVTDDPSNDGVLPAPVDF

[9] = target: T3, Replicative DNA helicase DnaB (Mycobacterium tuberculosis, UniProt P9WMR3); test: DnaB intein splicing inhibitors, dose response, biochemical, cell-free fluorescence (AID 449749); format: functional
T3 sequence (P9WMR3 whole entry): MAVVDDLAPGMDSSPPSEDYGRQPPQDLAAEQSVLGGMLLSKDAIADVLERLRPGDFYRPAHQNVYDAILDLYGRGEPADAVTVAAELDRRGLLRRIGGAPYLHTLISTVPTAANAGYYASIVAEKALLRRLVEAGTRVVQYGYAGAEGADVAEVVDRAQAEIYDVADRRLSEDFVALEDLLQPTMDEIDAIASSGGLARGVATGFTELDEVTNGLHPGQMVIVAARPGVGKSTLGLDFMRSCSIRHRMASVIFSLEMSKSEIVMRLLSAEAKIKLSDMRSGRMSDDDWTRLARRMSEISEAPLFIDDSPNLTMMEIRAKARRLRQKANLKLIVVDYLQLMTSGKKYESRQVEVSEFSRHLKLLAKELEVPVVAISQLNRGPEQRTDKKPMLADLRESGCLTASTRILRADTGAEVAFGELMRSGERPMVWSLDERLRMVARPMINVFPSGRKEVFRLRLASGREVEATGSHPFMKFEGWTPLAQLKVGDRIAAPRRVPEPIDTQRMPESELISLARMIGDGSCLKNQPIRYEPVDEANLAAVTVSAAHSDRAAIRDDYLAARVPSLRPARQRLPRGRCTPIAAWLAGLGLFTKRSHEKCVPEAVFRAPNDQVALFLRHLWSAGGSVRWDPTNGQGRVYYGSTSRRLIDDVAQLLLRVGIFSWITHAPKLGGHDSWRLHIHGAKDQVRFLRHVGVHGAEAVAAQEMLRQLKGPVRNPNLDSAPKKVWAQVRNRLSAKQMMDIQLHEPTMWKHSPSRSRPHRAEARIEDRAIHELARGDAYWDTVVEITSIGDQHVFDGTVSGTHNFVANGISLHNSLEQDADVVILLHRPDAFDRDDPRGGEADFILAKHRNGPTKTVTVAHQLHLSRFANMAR

[10] = Luminescence Cell-Based Dose Confirmation HTS to Identify Activators of 5'UTR Stem-Loop Driven Alpha-Synuclein mRNA Translation in H4 Neuroglioblastoma Cells. [Related pubchem assays: 1829 (Project Summary), 1814 (Primary HTS)]; format: functional
[11] = test system: H4; test: Luminescence Cell-Based Dose Response HTS to Identify Activators of 5'UTR Stem-Loop Driven Prion Protein mRNA Translation in H4 Neuroglioblastoma Cells. [Related pubchem assays: 1829 (Project Summary), 1814 (Primary HTS)]; format: functional; conditions: Homo sapiens
[12] = Luminescence Cell-Based Dose Response HTS to Identify Activators of Luciferase Translation or Activity in H4 […] Cells. [Related pubchem assays: 1829 (Project Summary), 1814 (Primary HTS)]; format: functional
[13] = cells; format: functional
[14] = C. albicans growth with fluconazole, confirmation, fluorescence, retest (AID 2467); format: functional, cell-based
[15] = NIH-3T3 fibroblast cytotoxicity, dose response, cytotoxicity control, cell-based, fluorescence, Alamar Blue, secondary assay (AID 2327); format: functional;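 also: NIH-3T3 mouse fibroblasts cultured with fluconazole at 8 µg/mL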
[16] = cytotoxicity toward NIH3T3 fibroblasts, dose response, counter-screen, cell-based, ATP luminescence, mouse fibroblasts (AID 2010); format: functional;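 also: cells exposed to compound for about 90 hours before reading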
[17] = inhibitors of intracellular T. cruzi replication, confirmation, NIH3T3 host cells, beta-gal luminescence (AID 2044); format: functional, cell-based;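 also: intracellular parasites grown in NIH/3T3 mouse fibroblasts as host cells; luminescent beta-galactosidase reporter signal from transgenic T. cruzi replicating inside host cells; inhibitors lower the luminescence signal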

N=C(NOC(=O)c1cccc(Cn2cc(C(F)(F)F)ccc2=O)c1)c1ccccc1
AC50 [1]: 7.96 µM (active)

Cc1ccc(-n2nc(-c3ccco3)cc2C(=O)NCc2cccnc2)cc1
EC50 [2]: 38.1 µM (active) | EC50 [3]: > 120 µM (not active) | EC50 [4]: > 120 µM (not active)

O=C(Nc1cccc(Cl)c1)c1cccc(Oc2ccc([N+](=O)[O-])cc2Cl)c1
EC50 [5]: 16.1 µM (active) | EC50 [6]: 17.1 µM (active)

COc1ccc(CCNC(=O)CNCC(c2ccccc2)N(C)C)cc1OC (centres undefined)
IC50 [7]: 78.4 µM (active)

C=CCNC(=S)Nc1ccc(OC(=O)Nc2ccc(Cl)c(Cl)c2)cc1
IC50 [7]: 89 µM (active)

Cc1cc(OCCCCCNCCO)cc(C)c1Cl
EC50 [5]: 17.8 µM (active) | EC50 [6]: 17.6 µM (active)

Cc1c(N(C)C)nc2ccccc2c1N
IC50 [7]: 102 µM (active)

O=C(Oc1ccc(Br)cc1C(=S)N1CCOCC1)c1cccc([N+](=O)[O-])c1
EC50 [8]: 23.1 µM (active) | AC50 [9]: 18.2 µM (active)

CCOc1ccc(Nc2nc(Cc3nnc(SCC(=O)c4ccc(C)c(C)c4)o3)cs2)cc1
AC50 [1]: 10.4 µM (active)

CC(C)(C)NC(=O)C(c1ccc(Cl)cc1)N(Cc1ccco1)C(=O)CCl (centres undefined)
EC50 [8]: 1.97 µM (active) | AC50 [9]: 24.1 µM (active)

OCCN1CCN(CC(O)COC(c2ccc(F)cc2)c2ccc(F)cc2)CC1 (centres undefined)
IC50 [7]: 121 µM (active)

C=CCn1c(-c2cccnc2Cl)nc2ccccc21
EC50 [8]: > 380 µM (inactive) | AC50 [9]: > 380 µM (inactive)

Cn1c(SCC(=O)NCc2ccc(F)cc2)nc2ccccc21
EC50 [8]: > 380 µM (inactive) | AC50 [9]: 124 µM (active)

Oc1ccc(CCc2ccccn2)cc1
IC50 [7]: 40 µM (active)

CC(C)=CCC/C(C)=C/CC(C)(C)CNCCN1CCNCC1
EC50 [5]: 6.28 µM (active) | EC50 [6]: 5.89 µM (active) | EC50 [10]: > 120 µM (not active) | EC50 [11]: > 120 µM (not active) | EC50 [12]: > 120 µM (not active)

CC(=O)Nc1ccc(OC(=O)c2ccc(Br)c([N+](=O)[O-])c2)cc1
IC50 [13]: 10.1 µM (active) | IC50 [7]: 36.4 µM (active)

Nc1ccc(N2CCN(c3cccc(Cl)c3)CC2)cc1
IC50 [7]: 21 µM (active) | EC50 [14]: > 38 µM (not active) | EC50 [15]: > 150 µM (inactive)

CC(OC(=O)c1oc2ccccc2c1COc1ccccc1)C(N)=O (centres undefined)
EC50 [2]: > 120 µM (not active) | EC50 [3]: 26.7 µM (active) | EC50 [14]: > 38 µM (not active) | EC50 [4]: 26.1 µM (active) | EC50 [15]: 19.8 µM (inconclusive)

Cc1ccc(CS(=O)(=O)Cc2ccc(C(=O)NC3CCCCCC3)o2)cc1
EC50 [2]: > 120 µM (not active) | EC50 [3]: 24.3 µM (active) | EC50 [4]: 22.5 µM (active)

Oc1ccc(/C=N/Nc2ncc(Cl)cc2Cl)cc1
IC50 [7]: 32.3 µM (active)

COc1cc(C=NNC(=O)c2ccccc2-n2cccc2)ccc1O
IC50 [7]: 32.7 µM (active)

COc1ccc(CSc2nc(N3CCOCC3)c3c(c2C#N)CC(C)(C)OC3)cc1
EC50 [2]: > 120 µM (not active) | EC50 [3]: 18.5 µM (active) | EC50 [16]: > 60 µM (not active) | EC50 [17]: 2.52 µM (active) | EC50 [4]: > 120 µM (not active)

CN1C(=O)C(=C2CC(c3ccccc3)N(C(=O)CCl)N2)C(=O)N(C)C1=O (centres undefined)
EC50 [8]: 0.351 µM (active) | AC50 [9]: 2.05 µM (active)

CCOC(=O)c1c(NC(=O)/C=C/C(=O)O)sc(C)c1-c1ccc(F)cc1
EC50 [8]: 6.23 µM (active) | AC50 [9]: 14.3 µM (active)

CC1(C)Cc2c(c(N3CCOCC3)nc3sc4c(NCc5ccccc5)nnnc4c23)CS1
EC50 [2]: 20.8 µM (active) | EC50 [3]: 25 µM (active) | EC50 [16]: > 60 µM (not active) | EC50 [17]: 1.13 µM (active) | EC50 [4]: 10.6 µM (active)

COc1ccc(C2c3c(oc4ccccc4c3=O)C(=O)N2c2ccccn2)cc1OC (centres undefined)
EC50 [5]: 17.2 µM (active) | EC50 [6]: 20.7 µM (active)

O=C(Nc1ccccc1O)C(c1ccccc1)c1ccccc1
AC50 [1]: 2.92 µM (active)

CCC1(CC)NC(=O)N(CC(=O)N2N=C(c3ccc(Cl)cc3)CC2c2ccco2)C1=O (centres undefined)
EC50 [2]: > 120 µM (not active) | EC50 [3]: > 120 µM (not active) | EC50 [4]: > 120 µM (not active)

CC(C)CC1C(C#N)=C(N)Oc2[nH]nc(-c3cccs3)c21 (centres undefined)
EC50 [8]: 58.1 µM (active) | AC50 [9]: 48.8 µM (active)
